Experimental data published in patent publication US8841483B2, “Compositions useful as inhibitors of voltage-gated sodium channels” (Vertex Pharmaceuticals Incorporated, priority 2006, dated 2014).

Biological target: NaV1.3 (Homo sapiens, UniProt Q9NY46)
Assay: not given
Conditions: read-out: TTX IC50; cited from earlier work

For NC1=N[C@H](O)[C@H]2[C@H]3O[C@]4(O)O[C@@H]([C@@H](O)[C@@]2(N1)[C@@H]4O)[C@]3(O)CO [TTX, tetrodotoxin], the IC50 is given as 0.015 µM.

Biological target: NaV1.6 (Homo sapiens, UniProt Q9UQD0)
Assay: not given
Conditions: read-out: TTX IC50; cited from earlier work

For NC1=N[C@H](O)[C@H]2[C@H]3O[C@]4(O)O[C@@H]([C@@H](O)[C@@]2(N1)[C@@H]4O)[C@]3(O)CO [TTX, tetrodotoxin], the IC50 is listed as 0.006 µM.

Biological target: T1, NaV1.8 (Homo sapiens, UniProt Q9Y5Y9)
Assay: not given
Conditions: read-out: TTX IC50; cited from earlier work

T1 sequence (Q9Y5Y9 whole entry, looked up): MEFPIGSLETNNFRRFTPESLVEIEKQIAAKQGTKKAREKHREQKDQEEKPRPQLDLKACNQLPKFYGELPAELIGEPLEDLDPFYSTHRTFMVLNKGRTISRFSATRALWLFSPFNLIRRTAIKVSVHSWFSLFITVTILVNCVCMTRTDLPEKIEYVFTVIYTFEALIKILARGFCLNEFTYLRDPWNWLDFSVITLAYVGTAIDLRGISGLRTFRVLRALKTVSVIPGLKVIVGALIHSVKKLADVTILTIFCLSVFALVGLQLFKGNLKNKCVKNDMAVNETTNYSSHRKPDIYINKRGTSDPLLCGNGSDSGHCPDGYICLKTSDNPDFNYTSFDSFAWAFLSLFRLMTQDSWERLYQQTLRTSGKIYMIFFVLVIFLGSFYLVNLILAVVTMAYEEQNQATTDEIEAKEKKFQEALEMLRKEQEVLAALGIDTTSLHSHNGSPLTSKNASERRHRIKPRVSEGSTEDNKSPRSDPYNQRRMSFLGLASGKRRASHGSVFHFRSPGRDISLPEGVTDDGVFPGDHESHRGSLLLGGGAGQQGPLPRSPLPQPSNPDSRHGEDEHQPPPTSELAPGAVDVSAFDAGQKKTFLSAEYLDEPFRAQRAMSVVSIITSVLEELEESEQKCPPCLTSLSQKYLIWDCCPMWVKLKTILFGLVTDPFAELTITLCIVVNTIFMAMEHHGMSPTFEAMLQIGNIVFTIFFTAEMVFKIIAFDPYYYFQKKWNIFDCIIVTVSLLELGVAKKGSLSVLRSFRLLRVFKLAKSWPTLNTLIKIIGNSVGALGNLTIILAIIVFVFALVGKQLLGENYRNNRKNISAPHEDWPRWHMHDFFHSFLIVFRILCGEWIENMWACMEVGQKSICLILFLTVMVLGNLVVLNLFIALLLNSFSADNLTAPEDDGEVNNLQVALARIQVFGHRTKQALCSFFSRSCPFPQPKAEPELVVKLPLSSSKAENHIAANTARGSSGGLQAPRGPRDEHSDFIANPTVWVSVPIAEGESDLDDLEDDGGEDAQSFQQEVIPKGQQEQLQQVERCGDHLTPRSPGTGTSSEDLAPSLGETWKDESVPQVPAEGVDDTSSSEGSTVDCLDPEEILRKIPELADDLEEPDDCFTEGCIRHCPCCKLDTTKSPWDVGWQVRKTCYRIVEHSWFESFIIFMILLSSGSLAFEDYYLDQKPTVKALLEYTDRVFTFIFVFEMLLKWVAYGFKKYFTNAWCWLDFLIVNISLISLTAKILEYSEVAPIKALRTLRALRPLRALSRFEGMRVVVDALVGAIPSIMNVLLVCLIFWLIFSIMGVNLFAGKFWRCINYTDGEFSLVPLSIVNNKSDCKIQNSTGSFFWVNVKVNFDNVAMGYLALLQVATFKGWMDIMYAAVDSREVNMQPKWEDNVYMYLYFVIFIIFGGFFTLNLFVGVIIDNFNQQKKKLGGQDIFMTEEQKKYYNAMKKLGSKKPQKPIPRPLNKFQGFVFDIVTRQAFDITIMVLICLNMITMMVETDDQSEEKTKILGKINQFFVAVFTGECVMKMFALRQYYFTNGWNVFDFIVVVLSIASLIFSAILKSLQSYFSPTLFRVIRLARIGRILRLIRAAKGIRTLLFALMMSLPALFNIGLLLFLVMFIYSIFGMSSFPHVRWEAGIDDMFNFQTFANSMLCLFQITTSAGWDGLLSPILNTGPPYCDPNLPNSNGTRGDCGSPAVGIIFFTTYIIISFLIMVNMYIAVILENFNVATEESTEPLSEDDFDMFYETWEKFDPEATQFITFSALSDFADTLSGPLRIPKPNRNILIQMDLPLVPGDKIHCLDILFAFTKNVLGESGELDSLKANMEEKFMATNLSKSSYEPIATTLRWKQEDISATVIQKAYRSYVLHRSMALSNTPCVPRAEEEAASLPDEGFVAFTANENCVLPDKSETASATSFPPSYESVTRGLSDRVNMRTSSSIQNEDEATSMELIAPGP

In the case of NC1=N[C@H](O)[C@H]2[C@H]3O[C@]4(O)O[C@@H]([C@@H](O)[C@@]2(N1)[C@@H]4O)[C@]3(O)CO [TTX, tetrodotoxin], the IC50 is listed as over 50 µM.

Biological target: NaV1.2 (Homo sapiens, UniProt Q99250)
Assay: not given
Conditions: read-out: TTX IC50; cited from earlier work

For NC1=N[C@H](O)[C@H]2[C@H]3O[C@]4(O)O[C@@H]([C@@H](O)[C@@]2(N1)[C@@H]4O)[C@]3(O)CO [TTX, tetrodotoxin], the IC50 is given as 0.01 µM.

Biological target: NaV1.1 (Homo sapiens, UniProt P35498)
Assay: not given
Conditions: read-out: TTX IC50; cited from earlier work

For NC1=N[C@H](O)[C@H]2[C@H]3O[C@]4(O)O[C@@H]([C@@H](O)[C@@]2(N1)[C@@H]4O)[C@]3(O)CO [TTX, tetrodotoxin], the IC50 is given as 0.01 µM.

Biological target: T1, NaV1.8
Assay: Activity against NaV 1.8 channel (Table 3), optical membrane potential / electrophysiology assays
Format: cell-based
Conditions: not given
Method: Compounds of the invention are useful as antagonists of voltage-gated sodium ion channels. Antagonist properties of test compounds were assessed as follows. Cells expressing the NaV of interest were placed into microtiter plates. After an incubation period, the cells were stained with fluorescent dyes sensitive to the transmembrane potential. The test compounds were added to the microtiter plate. The cells were stimulated with either a chemical or electrical means ti evoke a NaV dependent membrane potential change from unblocked channels, which was detected and measured with trans-membrane potential-sensitive dyes. Antagonists were detected as a decreased membrane potential response to the stimulus. The optical membrane potential assay utilized voltage-sensitive FRET sensors described by Gonzalez and Tsien (See, Gonzalez, J. E. and R. Y. Tsien (1995) “Voltage sensing by fluorescence resonance energy transfer in single cells” Biophys J 69(4): 1272-80, and Gonzalez, J. E. and R. Y. Tsien (1997) “Improved indicators of cell membrane potential that use fluorescence resonance energy transfer” Chem Biol 4(4): 269-77) in combination with instrumentation for measuring fluorescence changes such as the Voltage/Ion Probe Reader (VIPR®) (See, Gonzalez, J. E., K. Oades, et al. (1999) “Cell-based assays and instrumentation for screening ion-channel targets” Drug Discov Today 4(9): 431-439).
The following is an example of how NaV1.3 inhibition activity is measured using the optical membrane potential method #2. Other subtypes are performed in an analogous mode in a cell line expressing the NaV of interest.
HEK293 cells stably expressing NaV1.3 are plated into 96-well microtiter plates. After an appropriate incubation period, the cells are stained with the voltage sensitive dyes CC2-DMPE/DiSBAC2(3) as follows.
2X CC2-DMPE=20 μM CC2-DMPE: 10 mM CC2-DMPE is vortexed with an equivalent volume of 10% pluronic, followed by vortexing in required amount of HBSS containing 10 mM HEPES. Each cell plate will require 5 mL of 2X CC2-DMPE. 50 μL of 2X CC2-DMPE is to wells containing washed cells, resulting in a 10 μM final staining concentration. The cells are stained for 30 minutes in the dark at RT.
2X DISBAC2(3) with ABSC1=6 μM DISBAC2(3) and 1 mM ABSC1: The required amount of 10 mM DISBAC2(3) is added to a 50 ml conical tube and mixed with 1 μL 10% pluronic for each mL of solution to be made and vortexed together. Then HBSS/HEPES is added to make up 2X solution. Finally, the ABSC1 is added.
The 2X DiSBAC2(3) solution can be used to solvate compound plates. Note that compound plates are made at 2X drug concentration. Wash stained plate again, leaving residual volume of 50 μL. Add 50 uL/well of the 2X DiSBAC2(3) w/ABSC1. Stain for 30 minutes in the dark at RT.
The electrical stimulation instrument and methods of use are described in ION Channel Assay Methods PCT/US01/21652, herein incorporated by reference. The instrument comprises a microtiter plate handler, an optical system for exciting the coumarin dye while simultaneously recording the coumarin and oxonol emissions, a waveform generator, a current- or voltage-controlled amplifier, and a device for inserting electrodes in well. Under integrated computer control, this instrument passes user-programmed electrical stimulus protocols to cells within the wells of the microtiter plate.
Assay Protocol • 1. Insert or use electrodes into each well to be assayed. • 2. Use the current-controlled amplifier to deliver stimulation wave pulses for 3 s. Two seconds of pre-stimulus recording are performed to obtain the un-stimulated intensities. Five seconds of post-stimulation recording are performed to examine the relaxation to the resting state.
Data are analyzed and reported as normalized ratios of background-subtracted emission intensities measured in the 460 nm and 580 nm channels. Background intensities are then subtracted from each assay channel. […]

NS(=O)(=O)c1cccc(NC(=O)c2ccc3ccccc3c2)c1 [Compound 62] and NS(=O)(=O)c1cccc(NC(=O)c2cccc(C(=O)c3ccccc3)c2)c1 [Compound 18] cannot be ordered by IC50: over 10 µM for the first, over 10 µM for the second.

First: NS(=O)(=O)c1cccc(NC(=O)c2ccccc2Nc2cccc(F)c2)c1 [Compound 6]
Second: NS(=O)(=O)c1cccc(NC(=O)c2ccccc2Oc2ccc(F)cc2)c1 [Compound 95]
The IC50 of the first is higher: over 10 µM for the first, under 2 µM for the second.

First: CC(C)(C)c1ccc(C(=O)Nc2ccc(Cl)c(S(N)(=O)=O)c2)cc1 [Compound 79]
Second: Cc1c(Cl)cc(S(N)(=O)=O)cc1NC(=O)c1ccc(C(C)(C)C)cc1 [Compound 46]
The IC50 of the first is lower: under 2 µM for the first, over 10 µM for the second.

Compared with CC(C)Cc1ccc(C(=O)Nc2cccc(S(N)(=O)=O)c2)cc1 [Compound 80], CCc1ccc(C(=O)Nc2cccc(S(N)(=O)=O)c2)cc1 [Compound 28] is higher in IC50: under 2 µM for the first, over 10 µM for the second.

CC(C)(C)c1ccc(C(=O)Nc2cccc(S(N)(=O)=O)c2)c(Oc2cccc(C(F)(F)F)c2)c1 [Compound 134] and CC(C)(C)c1ccc(C(=O)Nc2cccc(S(N)(=O)=O)c2)c(Oc2cccc(F)c2)c1 [Compound 132] cannot be ordered by IC50: under 2 µM for the first, under 2 µM for the second.

First: NS(=O)(=O)c1cccc(NC(=O)c2ccccc2Oc2ccccc2Cl)c1 [Compound 21]
Second: NS(=O)(=O)c1cccc(NC(=O)c2ccccc2Oc2ccccc2)c1 [Compound 63]
The IC50 of the first is lower: under 2 µM for the first, 2 to 10 µM for the second.

CC(C)(C)c1ccc(C(=O)Nc2cccc(S(N)(=O)=O)c2)c(Br)c1 [Compound 93] and COc1cc(C(C)(C)C)ccc1C(=O)Nc1cccc(S(N)(=O)=O)c1 [Compound 106] cannot be ordered by IC50: under 2 µM for the first, under 2 µM for the second.

First: NS(=O)(=O)c1cccc(NC(=O)c2ccc(Cl)cc2)c1 [Compound 31]
Second: CC(C)c1ccc(C(=O)Nc2cccc(S(N)(=O)=O)c2)cc1 [Compound 10]
The IC50 of the first is higher: over 10 µM for the first, 2 to 10 µM for the second.

First: NS(=O)(=O)c1cccc(NC(=O)c2ccccc2Cc2ccccc2)c1 [Compound 7]
Second: NS(=O)(=O)c1cccc(NC(=O)c2ccccc2CCc2ccccc2)c1 [Compound 71]
The IC50 of the first is lower: under 2 µM for the first, 2 to 10 µM for the second. The first is the more potent here.

Compared with CC(=O)c1ccc(Oc2cc(C(C)(C)C)ccc2C(=O)Nc2cccc(S(N)(=O)=O)c2)cc1 [Compound 128], CC(C)(C)c1ccc(C(=O)Nc2cccc(S(N)(=O)=O)c2)c(Oc2ccc(C(N)=O)cc2)c1 [Compound 118] is higher in IC50: under 2 µM for the first, over 10 µM for the second.

CS(=O)(=O)c1ccc(C(=O)Nc2cccc(S(N)(=O)=O)c2)cc1 [Compound 56] and CCOc1ccc(C(=O)Nc2cccc(S(N)(=O)=O)c2)cc1 [Compound 64] cannot be ordered by IC50: over 10 µM for the first, over 10 µM for the second.

Cc1cc(Cl)ccc1C(=O)Nc1cccc(S(N)(=O)=O)c1 [Compound 29] and Cc1cc(Br)ccc1C(=O)Nc1cccc(S(N)(=O)=O)c1 [Compound 2] cannot be ordered by IC50: over 10 µM for the first, over 10 µM for the second.

Compared with Cc1cc(Oc2cc(C(C)(C)C)ccc2C(=O)Nc2cccc(S(N)(=O)=O)c2)cc(C)n1 [Compound 124], COc1cccc(Oc2cc(C(C)(C)C)ccc2C(=O)Nc2cccc(S(N)(=O)=O)c2)c1 [Compound 139] is lower in IC50: over 10 µM for the first, 2 to 10 µM for the second. The second is the more potent here.

First: CC(C)(C)c1ccc(C(=O)Nc2cccc(S(N)(=O)=O)c2)c(Sc2ccccc2)c1 [Compound 105]
Second: CC(C)(C)c1ccc(C(=O)Nc2cccc(S(N)(=O)=O)c2)c([S+]([O-])c2ccccc2)c1 (stereo not shown) [Compound 110, 4-tert-Butyl-2-(phenylsulfinyl)-N-(3-sulfamoylphenyl)benzamide]
The IC50 of the first is lower: under 2 µM for the first, 2 to 10 µM for the second.

CC(C)COC(=O)NC1CCN(c2ccccc2C(=O)Nc2cccc(S(N)(=O)=O)c2)CC1 [Compound 76] and CC(C)COC(=O)N1CCN(c2ccccc2C(=O)Nc2cccc(S(N)(=O)=O)c2)CC1 [Compound 45] cannot be ordered by IC50: over 10 µM for the first, over 10 µM for the second.

NS(=O)(=O)c1cccc(NC(=O)c2ccc(C(F)(F)F)cc2C(F)(F)F)c1 [Compound 81] and NS(=O)(=O)c1cccc(NC(=O)c2ccc(C(F)(F)F)cc2)c1 [Compound 8] cannot be ordered by IC50: over 10 µM for the first, over 10 µM for the second.

COc1cc(C)ccc1C(=O)Nc1cccc(S(N)(=O)=O)c1 [Compound 77] and CCOc1ccc(C(=O)Nc2cccc(S(N)(=O)=O)c2)c(OCC)c1 [Compound 117] cannot be ordered by IC50: over 10 µM for the first, over 10 µM for the second.

NS(=O)(=O)c1cccc(NC(=O)c2ccccc2OCc2ccccc2)c1 [Compound 51] and NS(=O)(=O)c1cccc(NC(=O)c2ccccc2-c2ccccc2)c1 [Compound 94] cannot be ordered by IC50: over 10 µM for the first, over 10 µM for the second.

Going from CC(C)(C)c1ccc(C(=O)Nc2cccc(S(N)(=O)=O)c2)c(Oc2cccc(N3CCOCC3)c2)c1 [Compound 136] to CC(C)(C)c1ccc(C(=O)Nc2cccc(S(N)(=O)=O)c2)c(Oc2ccccc2N2CCCCC2)c1 [Compound 97], the IC50 falls from over 10 µM to under 2 µM.

First: COc1ccc(Oc2ccccc2C(=O)Nc2cccc(S(N)(=O)=O)c2)cc1 [Compound 50]
Second: Cc1ccccc1C(=O)Nc1cccc(S(N)(=O)=O)c1 [Compound 69]
The IC50 of the first is lower: 2 to 10 µM for the first, over 10 µM for the second. The first is the more potent here.

CCc1ccccc1C(=O)Nc1cccc(S(N)(=O)=O)c1 [Compound 137] and NS(=O)(=O)c1cccc(NC(=O)c2ccccc2OC(F)(F)F)c1 [Compound 30] cannot be ordered by IC50: over 10 µM for the first, over 10 µM for the second.

CN(C)S(=O)(=O)c1cccc(NC(=O)c2ccc(C(C)(C)C)cc2)c1 [Compound 72] and NS(=O)(=O)c1cccc(NC(=O)c2ccc(SC(F)(F)F)cc2)c1 [Compound 60] cannot be ordered by IC50: over 10 µM for the first, over 10 µM for the second.

NS(=O)(=O)c1cccc(NC(=O)c2ccc(-c3ncns3)cc2)c1 [Compound 49] and NS(=O)(=O)c1cccc(NC(=O)c2ccc(OC(F)(F)F)cc2)c1 [Compound 34, N-(3-(Aminosulfonyl)phenyl)-4-(trifluoromethoxy)benzamide] cannot be ordered by IC50: over 10 µM for the first, over 10 µM for the second.

NS(=O)(=O)c1cccc(NC(=O)c2ccc(Cc3ccccc3)cc2)c1 [Compound 5] and NS(=O)(=O)c1cccc(NC(=O)c2cccc(-n3cccn3)c2)c1 [Compound 73] cannot be ordered by IC50: over 10 µM for the first, over 10 µM for the second.

Cc1ccc(S(N)(=O)=O)cc1NC(=O)c1ccc(Cl)cc1[N+](=O)[O-] [Compound 41] gave an IC50 of over 10 µM.

Biological target: NaV1.9 (Homo sapiens, UniProt Q9UI33)
Assay: not given
Conditions: read-out: TTX IC50; cited from earlier work

Chain of NaV1.9 (Q9UI33 whole entry, looked up): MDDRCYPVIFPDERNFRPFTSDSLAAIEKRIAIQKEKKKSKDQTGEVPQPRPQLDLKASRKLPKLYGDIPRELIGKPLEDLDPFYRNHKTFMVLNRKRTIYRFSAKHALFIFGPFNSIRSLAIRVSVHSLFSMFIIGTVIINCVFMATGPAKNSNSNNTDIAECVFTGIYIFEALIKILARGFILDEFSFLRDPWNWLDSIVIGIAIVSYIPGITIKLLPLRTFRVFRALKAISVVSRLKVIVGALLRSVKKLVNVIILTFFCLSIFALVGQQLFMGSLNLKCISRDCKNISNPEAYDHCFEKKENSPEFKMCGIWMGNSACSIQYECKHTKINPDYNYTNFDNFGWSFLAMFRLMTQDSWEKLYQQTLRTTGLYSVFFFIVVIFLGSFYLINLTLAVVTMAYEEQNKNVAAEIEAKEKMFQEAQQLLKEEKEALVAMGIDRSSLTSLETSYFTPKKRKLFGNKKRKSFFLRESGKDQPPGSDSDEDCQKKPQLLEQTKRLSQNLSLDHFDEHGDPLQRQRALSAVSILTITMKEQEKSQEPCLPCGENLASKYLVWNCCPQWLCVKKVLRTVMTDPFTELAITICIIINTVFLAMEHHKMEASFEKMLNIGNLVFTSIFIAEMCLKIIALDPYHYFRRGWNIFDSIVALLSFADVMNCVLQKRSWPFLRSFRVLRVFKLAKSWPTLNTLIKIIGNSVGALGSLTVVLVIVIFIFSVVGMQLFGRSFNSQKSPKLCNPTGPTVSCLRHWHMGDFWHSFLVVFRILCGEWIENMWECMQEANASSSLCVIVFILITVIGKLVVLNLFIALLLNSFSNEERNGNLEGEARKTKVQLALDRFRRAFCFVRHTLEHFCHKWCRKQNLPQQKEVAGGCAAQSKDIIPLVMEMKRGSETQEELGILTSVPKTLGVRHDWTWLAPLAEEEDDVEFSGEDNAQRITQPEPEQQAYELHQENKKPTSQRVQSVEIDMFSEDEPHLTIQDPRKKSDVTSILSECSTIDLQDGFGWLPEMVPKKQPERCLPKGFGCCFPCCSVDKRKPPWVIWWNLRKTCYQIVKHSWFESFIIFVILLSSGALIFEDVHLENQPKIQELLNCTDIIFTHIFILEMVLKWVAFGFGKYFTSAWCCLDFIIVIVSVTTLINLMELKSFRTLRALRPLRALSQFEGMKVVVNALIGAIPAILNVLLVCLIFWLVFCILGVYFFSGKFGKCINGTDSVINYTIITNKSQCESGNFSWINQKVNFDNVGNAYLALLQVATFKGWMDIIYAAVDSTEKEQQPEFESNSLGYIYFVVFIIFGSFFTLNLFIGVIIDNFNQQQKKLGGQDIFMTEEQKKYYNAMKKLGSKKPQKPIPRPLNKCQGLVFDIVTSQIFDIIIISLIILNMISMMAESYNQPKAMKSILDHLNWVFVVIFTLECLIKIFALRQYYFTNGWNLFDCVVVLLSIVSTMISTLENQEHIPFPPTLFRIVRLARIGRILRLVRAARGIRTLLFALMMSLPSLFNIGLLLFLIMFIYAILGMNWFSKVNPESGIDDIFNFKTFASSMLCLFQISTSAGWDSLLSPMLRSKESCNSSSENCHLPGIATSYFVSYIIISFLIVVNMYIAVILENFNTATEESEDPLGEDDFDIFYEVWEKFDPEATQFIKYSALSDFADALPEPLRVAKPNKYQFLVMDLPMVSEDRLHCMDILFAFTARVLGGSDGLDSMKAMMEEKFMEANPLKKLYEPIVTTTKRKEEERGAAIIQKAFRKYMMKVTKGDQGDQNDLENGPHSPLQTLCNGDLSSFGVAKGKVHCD

In the case of NC1=N[C@H](O)[C@H]2[C@H]3O[C@]4(O)O[C@@H]([C@@H](O)[C@@]2(N1)[C@@H]4O)[C@]3(O)CO [TTX, tetrodotoxin], the IC50 is listed as 1 µM.
